Assay results reported in US4389412A, “Substituted cyclopropanecarboxylic acid esters and pesticidal compositions containing the same as active ingredient” (priority 1979, dated 1983).
Values after ≈ are worked out from the molar mass of the structure shown. “Also recorded” adds a separate entry of the source.

Columns and labels:
fish = test: Fish toxicity safety factor (TLm divided by maximum concentration in cover water); set-up: species or system carp; details: TLm / maximum concentration in cover water at LC50 application (100 l per 10 ares, 5 cm depth)
In short: (§1)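 Calculated index: carp TLm (ppm) divided by the maximum compound concentration expected in paddy cover water. That concentration assumes 100 l of solution at the pest LC50 applied per 10 ares onto 5 cm deep cover water, all of it entering the water.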

carp (Cyprinus carpio L) = test: Fish toxicity test with carp; assay type: in vivo; details: 48 hrs., 21±1° C.; 2880 min
In short: (§2)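 Compound in acetone with Tween-20 dispersed in 50 L aerated water at a set concentration; five carp (about 6 g, 6 cm) exposed at 21±1° C. Deaths checked after 48 h, and TLm (median tolerance limit, ppm) determined.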

[1] = tested on: brown planthoppers (Nilaparvata lugens Stal); test: Utility Example-1: LC50 on adult brown planthoppers on dipped rice plants; assay type: in vivo; details: 25° C.; for Pesticidal activity LC50: 24 hours, 1440 min
In short: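 Rice plants 4 weeks from sowing were dipped in water-diluted 1% emulsifiable concentrate at set concentrations and air-dried. Thirty adult N. lugens were caged on each pot, held at 25 °C.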

[2] = tested on: water-fleas (Daphnia pulex); test: Toxicity test with water-fleas; assay type: in vivo; details: 25±1° C.
Protocol: Toxicity test with water-fleas (Daphnia pulex)
An acetone solution of one of the test compounds as mentioned in Table 10 and Tween-20 (the same surfactant as mentioned hereinbefore) was prepared. To 100 ml of water in a high-walled dish (9 cm in diameter, 7 cm deep) was added the above acetone solution. The mixture was stirred thoroughly to prepare an aqueous solution containing the test compound in a predetermined concentration. This was used as a test water. Twenty water-fleas (Daphnia pulex) were released into each test water which was maintained at 25±1° C. After 6 hours, the water-fleas were examined for deaths. The TLm (median tolerance limit, ppm) was determined.

[3] = tested on: green rice leafhoppers (Nephotettix cincticeps Uhler); test: Mortality test with green rice leafhoppers by topical application method
Protocol: Mortality test with green rice leafhoppers (Nephotettix cincticeps Uhler) by topical application method
Then, the insects were kept at 25° C. with access to rice plant seedlings. The insects were used in groups of 15 individuals each.

carp and water flea = test: Fish toxicity ranking according to Japanese regulations; set-up: species or system Cyprinus carpio L; Daphnia pulex; details: from TLm for carp and water flea
In short: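 Ranking per Japanese agrochemical regulations from median tolerance limits: A = carp TLm (48 hrs.) >10 ppm and water flea TLm (3 hrs.) >0.5 ppm; B = carp 10-0.5 ppm, or carp >10 ppm with water flea <0.5 ppm; C = carp TLm (48 hrs.) <0.5 ppm.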

pests = test: Pesticidal effectiveness, overall; details: in vivo
Source text: The pesticidal activity of the compounds according to this invention against green rice leafhoppers (Nephotettix cincticeps Uhler), rice stem borers (Chilo suppressalis Walker), tobacco cutworms (Prodenia litura […]) and houseflies (Musca domestica), as examples of the pests against which the same compounds are considered effective, the acute toxicity data on the same compounds as determined in rat by the oral route and the median tolerance limit (TLm) data on the same compounds as determined in killifish (Orizias latipes) and guppies (Lebistes reticulatus) are shown in Table 1 alongside the corresponding values for various control compounds. The pesticidal effects were determined by the procedures set forth in Test Examples 1 through 4, while the acute toxicity to rat was determined by the procedure set forth in Test Example 9 and the toxicity to fish was determined by the procedures set forth in Test Examples 6 and 7, all those Examples appearing hereinafter.

[4] = tested on: rice stem borers (Chilo suppressalis Walker); test: Mortality test with rice stem borers by topical application method; assay type: in vivo; details: 24 h
Protocol: Mortality test with rice stem borers (Chilo suppressalis Walker) by topical application method
Using a microsyringe, 0.5 μl of the above solution was applied to the thoracic abdominal region of each final-instar larva of rice stem borer (Chilo suppressalis Walker). […] The test larvae were used in groups of 20 individuals each.

[5] = tested on: tobacco cutworms (Prodenia litura Fabricius); test: Mortality test with tobacco cutworms by topical application method; assay type: in vivo; details: 24 h, read-out: Pesticidal effect, tobacco cutworm
Protocol: Mortality test with tobacco cutworms (Prodenia litura Fabricius) by topical application method
Using a microsyringe, 0.5 μl of the above solution was dripped onto the thoracic adbominal region of each of 3-instar tobacco cutworm (Prodenia litura Fabricius) larvae. […] The test larvae were used in groups of 20 individuals each.

[6] = Fish toxicity safety factor (TLm divided by maximum concentration in cover water); set-up: species or system carp; details: in vivo, TLm / maximum concentration in cover water at LC50 application (100 l per 10 ares, 5 cm depth)
In short: as §1

crop plants = test: Phytotoxicity test; assay type: in vivo; details: 2,000 ppm solution on leaves, after 10 days
Source text: A 2,000 ppm solution of each of the cis- and trans-isomers and a 50:50 mixture of cis- and trans-isomers of Compound (1) and of Compound (2), and a 50:50 mixture of the cis- and trans-isomers of Compound (B) and Compound (E) was applied to the leaves of the following crop plants.
After 10 days, the crop plants were examined for their phytotoxicities.

[7] = tested on: houseflies (Musca domestica); test: Mortality test with houseflies by topical application method; details: 24 h
Protocol: Mortality test with houseflies (Musca domestica) by topical application method
Each of the compounds according to this invention and the control compounds (Table 2) was accurately weighted and a 0.1% solution of each sample in acetone was prepared. Female adult houseflies (Musca domestica) resistant to organophosphorus pesticides, were anesthetized with ether and 0.5 μl or 1.0 μl of the above solution was micropipetted onto the prothoracic dorsal region of each insect. The insects were then put in a high-walled dish together with feed and the dish was covered with a wire-mesh cover and kept at a temperature of 25° C. The test insects were used in groups of 30 individuals each. After 24 hours the insects were examined for deaths and the percent mortality was calculated.

[8] = Fish toxicity test with carp; assay type: in vivo, Cyprinus carpio L; details: carp, water, 48 hrs., 21±1° C.; read-out: TLm, Carp (48 hrs.)
In short: as §2

[9] = Fish toxicity test with guppies; assay type: in vivo, Lebistes reticulatus; details: guppy, water, guppies, 20° C., read-out: TLm (48 hrs.)
In short: (§3)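 Ten female guppies, 3–4 months old, held at 20 °C in water containing surfactant and test compound added in acetone solution. TLm (median tolerance limit, ppm) determined.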

[10] = tested on: guppies (Lebistes reticulatus); test: Fish toxicity test with guppies; assay type: in vivo; details: Table 1; 48 hrs.
In short: as §3

[11] = Acute toxicity test in rat by the oral route; assay type: in vivo; details: in vivo, male rat, in olive oil, after 7 days
Source text: Acute toxicity test in rat by the oral route

[12] = Nephotettix cincticeps, in Oryza sativa, 24 h

C#CC(OC(=O)C1C(C=C(Cl)Cl)C1(C)C)c1cccc(Oc2ccc(Cl)cc2)c1 (stereo not drawn) [Compound (2) cis-/trans- = 30:70]
Fish toxicity safety factor (fish): 13.6
TLm, Carp (48 hrs.) (carp (Cyprinus carpio L)): 4.9 ppm
Pesticidal activity LC50 [1]: 180 ppm
TLm, Water-flea (6 hrs.) [2]: > 40 ppm
LD50 (median lethal dose) ([3]; green rice leafhoppers, 1440 min): 0.40 µg/g
Ranking (carp and water flea): B (TLm (48 hrs.) value 10-0.5 ppm for carp; or TLm (48 hrs.) value >10 ppm for carp and TLm (3 hrs.) value <0.5 ppm for water flea, wherein appreciable toxicity to fishes is not observed by usual application but may be observed when applied to wide area at one time.)

C#CC(OC(=O)C1C(C=C(Cl)Cl)C1(C)C)c1cccc(Oc2ccc(Cl)cc2)c1 (stereo not drawn) [Compound (2), 3-(4-chlorophenoxy)-α-ethynylbenzyl 2,2-dimethyl-3-(2,2-dichlorovinyl)cyclopropanecarboxylate]
pesticidal effectiveness in words (pests): excellent pesticidal activity against both the sensitive and resistant strains of pests; also recorded: at least equivalent or superior in pesticidal effectiveness to control compounds (A), (B), (C), (D), (E), (F), (G) and (H)

CC1(C)C(C=C(Cl)Cl)C1C(=O)OCc1cccc(Oc2ccc(Cl)cc2)c1 (centres unmarked) [Compound (1), 3-(4-chlorophenoxy)benzyl 2,2-dimethyl-3-(2,2-dichlorovinyl)cyclopropanecarboxylate]
pesticidal effectiveness in words (pests): excellent pesticidal activity against both the sensitive and resistant strains of pests; also recorded: at least equivalent or superior in pesticidal effectiveness to control compounds (A), (B), (C), (D), (E), (F), (G) and (H)

C#CC(OC(=O)C1C(C=C(Cl)Cl)C1(C)C)c1cccc(Oc2ccc(Cl)cc2)c1 (stereo not drawn) [Compound (2) cis-/trans- = 10:90]
Fish toxicity safety factor (fish): 20
TLm, Carp (48 hrs.) (carp (Cyprinus carpio L)): 7.2 ppm
Pesticidal activity LC50 [1]: 180 ppm
TLm, Water-flea (6 hrs.) [2]: > 40 ppm
Ranking (carp and water flea): B (TLm (48 hrs.) value 10-0.5 ppm for carp; or TLm (48 hrs.) value >10 ppm for carp and TLm (3 hrs.) value <0.5 ppm for water flea, wherein appreciable toxicity to fishes is not observed by usual application but may be observed when applied to wide area at one time.)

CC(C)C(C(=O)OC(C#N)c1cccc(Oc2ccccc2)c1)c1ccc(Cl)cc1 (centres unmarked) [Compound (E), Fenvalerate]
mortality at 1 µg/larva [4]: 100%
mortality at 10 µg/larva [4]: 100%
mortality at 0.001 mg ([4]; read-out: Pesticidal effect, rice stem borer): 100%
mortality at 0.0001 mg [5]: 100%
selectivity ratio [6]: 0.001
phytotoxicity (crop plants): caused chlorosis to each one of the crop plants and did large damage to the same
mortality at 0.5 µg/female [7]: 100%
mortality at 1 µg/female [7]: 100%
mortality at 0.001 mg ([7]; read-out: Pesticidal effect, housefly): 100%
LC50 at 48 h [8]: 0.0032 µg/mL (≈ 0.00762 µM)
LC50 at 48 h [9]: < 0.5 µg/mL
Toxicity to fish TLm, guppy [10]: < 0.5 ppm
LD50 at 168 h [11]: 440 mg/kg
LC50 ([1]; Nilaparvata lugens, 24 h, read-out: Pesticidal activity LC50): 1550 µg/mL (≈ 3690 µM)
mortality at 0.01 µg/female [3, 12]: 100%
mortality at 0.1 µg/female [3, 12]: 100%
mortality at 1 µg/female [3, 12]: 100%
mortality at 10 ng ([3]; Nephotettix cincticeps, in Oryza sativa, 24 h, read-out: Pesticidal effect, green rice leafhopper): 100%
Ranking (carp and water flea): C (TLm (48 hrs.) value <0.5 ppm for carp, wherein toxicity to fishes is so strongly observed by usual application that both the application method and application area are strictly restricted.)
